From publication PMC3362318 (Invertebrate Neuroscience, 2012) come the findings set out here.

For test [1], the target named is T1, Hco-L-AChR1 (Haemonchus contortus, UniProt A9XX24+D6MYE9+D6MYF3+D6MYF4). Briefly: two-electrode voltage clamp, Xenopus oocytes, dose-response. Format: cell-based. A general note: Two-electrode voltage clamp holds a large cell at a set potential and records current.
The target of the next test is T2, Hco-L-AChR2 (Haemonchus contortus, UniProt D6MYE9+D6MYF3+D6MYF4).
T2 sequence (D6MYE9 21-498): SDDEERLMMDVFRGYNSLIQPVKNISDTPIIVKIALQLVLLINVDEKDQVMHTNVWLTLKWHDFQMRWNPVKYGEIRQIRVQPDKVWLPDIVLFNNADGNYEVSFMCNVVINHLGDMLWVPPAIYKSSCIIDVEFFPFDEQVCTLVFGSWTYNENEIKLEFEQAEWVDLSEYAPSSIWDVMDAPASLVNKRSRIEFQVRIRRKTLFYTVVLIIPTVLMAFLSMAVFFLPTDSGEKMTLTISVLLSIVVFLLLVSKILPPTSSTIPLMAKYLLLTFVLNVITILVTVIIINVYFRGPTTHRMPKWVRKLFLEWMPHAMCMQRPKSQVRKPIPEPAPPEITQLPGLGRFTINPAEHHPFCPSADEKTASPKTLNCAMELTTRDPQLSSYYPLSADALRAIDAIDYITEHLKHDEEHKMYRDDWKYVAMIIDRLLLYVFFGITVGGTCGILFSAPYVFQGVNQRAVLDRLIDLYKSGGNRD
T2 sequence (D6MYF3 20-512): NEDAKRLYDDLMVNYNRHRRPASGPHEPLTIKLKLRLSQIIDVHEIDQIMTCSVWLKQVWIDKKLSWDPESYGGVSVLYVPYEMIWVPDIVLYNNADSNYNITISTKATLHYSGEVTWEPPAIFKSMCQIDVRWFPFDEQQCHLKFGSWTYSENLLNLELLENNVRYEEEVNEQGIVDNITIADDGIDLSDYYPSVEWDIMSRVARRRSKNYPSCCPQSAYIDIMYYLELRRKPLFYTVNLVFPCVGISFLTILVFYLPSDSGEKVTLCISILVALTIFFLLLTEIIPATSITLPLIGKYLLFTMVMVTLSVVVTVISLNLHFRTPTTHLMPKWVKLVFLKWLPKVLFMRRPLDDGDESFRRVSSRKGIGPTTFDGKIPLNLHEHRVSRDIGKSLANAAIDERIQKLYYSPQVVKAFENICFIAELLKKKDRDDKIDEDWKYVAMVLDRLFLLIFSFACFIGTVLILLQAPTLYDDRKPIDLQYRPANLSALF
T2 sequence (D6MYF4 22-504): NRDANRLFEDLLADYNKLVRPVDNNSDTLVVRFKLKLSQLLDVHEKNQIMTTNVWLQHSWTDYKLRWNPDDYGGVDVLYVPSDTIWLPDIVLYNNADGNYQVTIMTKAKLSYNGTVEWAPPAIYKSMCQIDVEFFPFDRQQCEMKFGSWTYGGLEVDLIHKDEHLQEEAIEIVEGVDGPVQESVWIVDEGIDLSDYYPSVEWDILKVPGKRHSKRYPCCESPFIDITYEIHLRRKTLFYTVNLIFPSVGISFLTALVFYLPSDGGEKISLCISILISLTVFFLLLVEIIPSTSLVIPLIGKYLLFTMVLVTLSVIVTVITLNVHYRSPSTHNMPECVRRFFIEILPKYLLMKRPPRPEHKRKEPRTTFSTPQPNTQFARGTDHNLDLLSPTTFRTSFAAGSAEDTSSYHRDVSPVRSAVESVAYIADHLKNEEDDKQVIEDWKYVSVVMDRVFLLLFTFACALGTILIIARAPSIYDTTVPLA
Briefly: two-electrode voltage clamp, Xenopus oocytes, peak current. In kind it is cell-based. The settings on record: agonist; -60 mV, 1 mM external CaCl2, pH 7.3, BAPTA-AM treated.

In test [2] the target is T1, Hco-L-AChR1. Particulars: agonist; 30 μM; -60 mV, 1 mM external CaCl2, pH 7.3, BAPTA-AM treated.

A word on the EC50: it is the concentration giving half of the maximal effect. Read a high EC50 as weaker potency.

Structures are written as SMILES.

T1 sequence (A9XX24 19-536, one chain of several): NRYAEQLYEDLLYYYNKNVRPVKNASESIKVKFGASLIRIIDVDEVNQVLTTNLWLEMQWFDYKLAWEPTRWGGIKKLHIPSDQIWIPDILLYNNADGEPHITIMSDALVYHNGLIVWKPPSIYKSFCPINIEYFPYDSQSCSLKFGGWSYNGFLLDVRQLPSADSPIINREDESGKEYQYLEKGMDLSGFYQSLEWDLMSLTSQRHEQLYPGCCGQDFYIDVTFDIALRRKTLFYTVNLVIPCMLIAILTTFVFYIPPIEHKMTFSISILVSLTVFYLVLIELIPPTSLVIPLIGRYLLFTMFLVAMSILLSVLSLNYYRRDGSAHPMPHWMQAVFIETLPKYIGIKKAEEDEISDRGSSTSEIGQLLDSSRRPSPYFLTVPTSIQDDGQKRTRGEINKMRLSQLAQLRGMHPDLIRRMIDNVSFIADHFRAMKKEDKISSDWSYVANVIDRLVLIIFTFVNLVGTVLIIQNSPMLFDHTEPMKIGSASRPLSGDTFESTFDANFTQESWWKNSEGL

For the compound `C[N+](C)(CCOc1ccccc1)Cc1ccccc1` [Beph, bephenium], it took 7.7 ± 0.6 µM to reach a half-maximal effect at Hco-L-AChR1 [1] (EC50).

In turn, `c1ccc([C@H]2CN3CCSC3=N2)cc1` [Lev, levamisole] gave an EC50 at Hco-L-AChR1 [1] of 6.08 ± 0.3 µM. Further, the “two-electrode voltage clamp, Xenopus oocytes, peak current” value (“two-electrode voltage clamp” below) at Hco-L-AChR2 was “Hco-L-AChR2 potency series was: pyrantel > acetylcholine > nicotine > levamisole”.

As for `CN1CCC[C@H]1c1cccnc1` [Nic, nicotine], the “two-electrode voltage clamp” value on Hco-L-AChR2 is “Hco-L-AChR2 potency series was: pyrantel > acetylcholine > nicotine > levamisole”.

Turning to `CN1CCCN=C1/C=C/c1cccs1` [Pyr, pyrantel], the “two-electrode voltage clamp” value is given as “Hco-L-AChR2 potency series was: pyrantel > acetylcholine > nicotine > levamisole” on Hco-L-AChR2 and “levamisole > acetylcholine > pyrantel > nicotine for the Hco-L-AChR1” at Hco-L-AChR1 [2].
